This is an account of results in ChEMBL document CHEMBL2062522, “Halogenated spirotetronates from Actinoallomurus” (J Nat Prod, 2012).

Assay [1] is described as follows: Cytotoxicity against mouse BMDM cells after 72 hrs by MTT assay. It is filed as cell-based.
In assay [2] the test system is Streptococcus pneumoniae. Kind of assay: Antibacterial activity against penicillin-sensitive Streptococcus pneumoniae isolate L44 by broth microdilution method.
The next assay can be described thus: cells. The settings on record: Homo sapiens, HMEC-1, 72 h.
For assay [3], the system named is Enterococcus faecalis. Kind of assay: Antibacterial activity against vancomycin-sensitive Enterococcus faecalis isolate L559 by broth microdilution method. It is filed as functional. On the technique in general: Dilution methods test growth across graded concentrations, often in twofold steps.
For assay [4], the system named is Staphylococcus aureus. Kind of assay: Antibacterial activity against glycopeptide-intermediate Staphylococcus aureus isolate L3798 by broth microdilution method. Type of assay: functional.
Assay [5] deals with Staphylococcus aureus. The assay can be described thus: Antibacterial activity against glycopeptide-intermediate,methicillin-resistant Staphylococcus aureus isolate L3797 by broth microdilution method. Type of assay: functional.
Assay [6] deals with Staphylococcus haemolyticus. Kind of assay: Antibacterial activity against methicillin-sensitive Staphylococcus haemolyticus isolate L1730 by broth microdilution method. It is filed as functional.
The subject of assay [7] is Staphylococcus aureus. The assay can be described thus: Antibacterial activity against methicillin-resistant Staphylococcus aureus isolate L1400 by broth microdilution method. Type of assay: functional.
The test system of assay [8] is Staphylococcus aureus. The assay can be described thus: Antibacterial activity against methicillin-sensitive Staphylococcus aureus ATCC 25923 by broth microdilution method. Type of assay: functional.
Another assay has as its system Streptococcus pyogenes. The assay can be described thus: Antibacterial activity against Streptococcus pyogenes isolate L49 by broth microdilution method. Type of assay: functional.
Assay [9] concerns Staphylococcus aureus. The assay can be described thus: Antibacterial activity against methicillin-sensitive Staphylococcus aureus ATCC 29213 by broth microdilution method. It is filed as functional.
The test system of assay [10] is Enterococcus faecium. Kind of assay: Antibacterial activity against vancomycin-sensitive Enterococcus faecium isolate L568 by broth microdilution method. Type of assay: functional.
Assay [11] relates to Staphylococcus aureus. The assay can be described thus: Antibacterial activity against methicillin-sensitive Staphylococcus aureus ATCC 6538P by broth microdilution method. It is filed as functional.
For assay [12], the system named is Streptococcus pneumoniae. Kind of assay: Antibacterial activity against Streptococcus pneumoniae BAA1402 expressing MefE efflux pump by broth microdilution method. Type of assay: functional.
For assay [13], the system named is Enterococcus faecium. Kind of assay: Antibacterial activity against vancomycin-resistant Enterococcus faecium isolate L569 by broth microdilution method. It is filed as functional.
Assay [14] deals with Enterococcus faecalis. Kind of assay: Antibacterial activity against vancomycin-resistant Enterococcus faecalis isolate L560 by broth microdilution method. Type of assay: functional.
The subject of assay [15] is Staphylococcus haemolyticus. Kind of assay: Antibacterial activity against methicillin-resistant Staphylococcus haemolyticus isolate L1729 by broth microdilution method. It is filed as functional.
Another assay relates to Candida albicans. The assay can be described thus: Antifungal activity against Candida albicans. It is filed as functional, organism-based.

The structures appear in SMILES notation. ≈ marks a conversion by molar mass, not a printed value. Calls of active or inactive are those of the source. The calls are words filed in the database; no cut-off is given here.

Description for cells: Cytotoxicity against human HMEC1 cells after 72 hrs by MTT assay

On to `CC[C@H]1C[C@@]23OC(=O)C(=C2O)C(=O)[C@]2(CC)[C@@H](C=C[C@@H]4[C@@H](O[C@H]5C[C@@H](O)[C@H](NC(=O)c6[nH]c(Cl)c(Cl)c6Cl)[C@@H](C)O5)[C@@H](C)CC[C@@H]42)CCCC/C=C/[C@@]3(C)C=C1C(=O)O`, for which the IC50 in assay [1] amounted to 47 µM; in the assay “cells”, 2 µM. Further, the MIC against Streptococcus pneumoniae [2] was 8 µg/mL (≈ 9.11 µM); with Enterococcus faecalis [3], 2 µg/mL (≈ 2.28 µM); against Staphylococcus aureus [4], 4 µg/mL (≈ 4.55 µM); in the assay with Staphylococcus aureus [5] it was 4 µg/mL (≈ 4.55 µM); in assay [6], 4 µg/mL (≈ 4.55 µM); with Staphylococcus aureus [7], 4 µg/mL (≈ 4.55 µM). Further, the MIC against Staphylococcus aureus [8] is 2 µg/mL (≈ 2.28 µM); against Streptococcus pyogenes it was 8 µg/mL (≈ 9.11 µM); in the assay on Staphylococcus aureus [9], 2 µg/mL (≈ 2.28 µM); against Enterococcus faecium [10], 16 µg/mL (≈ 18.2 µM); against Staphylococcus aureus [11] it was 2 µg/mL (≈ 2.28 µM); with Streptococcus pneumoniae [12] it was > 128 µg/mL. Besides, the MIC in the assay on Enterococcus faecium [13] amounted to 8 µg/mL (≈ 9.11 µM); in the assay on Enterococcus faecalis [14] it was 2 µg/mL (≈ 2.28 µM); in assay [15], 4 µg/mL (≈ 4.55 µM).

Turning to `COc1cccc2c1C(=O)c1c(O)c3c(c(O)c1C2=O)C[C@@](O)(C(=O)CO)C[C@@H]3O[C@H]1C[C@H](N)[C@H](O)[C@H](C)O1` [DOXORUBICIN], the IC50 in assay [1] worked out at 4.6 µM; in the assay “cells”, 0.06 µM.

As to `CC[C@H]1C[C@@]23OC(=O)C(=C2O)C(=O)[C@]2(CC)[C@@H](C=C[C@@H]4[C@@H](O[C@H]5C[C@@H](O)[C@H](NC(=O)c6[nH]cc(Br)c6Br)[C@@H](C)O5)[C@@H](C)CC[C@@H]42)CCCC/C=C/[C@@]3(C)C=C1C(=O)O`, the IC50 in assay [1] came to 109 µM; in the assay “cells”, 3 µM. In addition, the minimal inhibitory concentration (MIC) against Streptococcus pneumoniae [2] turned out to be 8 µg/mL (≈ 8.58 µM); in the assay with Enterococcus faecalis [3], 32 µg/mL (≈ 34.3 µM); with Staphylococcus aureus [7], 16 µg/mL (≈ 17.2 µM); in the assay with Streptococcus pyogenes, 1 µg/mL (≈ 1.07 µM); in the assay with Staphylococcus aureus [9], 8 µg/mL (≈ 8.58 µM); against Enterococcus faecium [10] it was 32 µg/mL (≈ 34.3 µM). Further, the MIC against Enterococcus faecium [13] amounted to 32 µg/mL (≈ 34.3 µM); in the assay on Enterococcus faecalis [14], 16 µg/mL (≈ 17.2 µM).

Consider `CN[C@H](CC(C)C)C(=O)N[C@H]1C(=O)N[C@@H](CC(N)=O)C(=O)N[C@H]2C(=O)N[C@H]3C(=O)N[C@H](C(=O)N[C@H](C(=O)O)c4cc(O)cc(O)c4-c4cc3ccc4O)[C@H](O)c3ccc(c(Cl)c3)Oc3cc2cc(c3O[C@@H]2O[C@H](CO)[C@@H](O)[C@H](O)[C@H]2O[C@H]2C[C@](C)(N)[C@H](O)[C@H](C)O2)Oc2ccc(cc2Cl)[C@H]1O` [VANCOMYCIN], for which the MIC is 0.5 µg/mL (≈ 0.345 µM) with Streptococcus pneumoniae [2]; 1 µg/mL (≈ 0.69 µM) against Enterococcus faecalis [3]; 8 µg/mL (≈ 5.52 µM) against Staphylococcus aureus [4]; > 128 µg/mL against Staphylococcus aureus [5]; 1 µg/mL (≈ 0.69 µM) in assay [6]; 1 µg/mL (≈ 0.69 µM) against Streptococcus pyogenes. The MIC in the assay with Streptococcus pneumoniae [12] is 4 µg/mL (≈ 2.76 µM); in the assay on Enterococcus faecium [13], > 128 µg/mL; in the assay with Enterococcus faecalis [14], > 128 µg/mL; in assay [15], 2 µg/mL (≈ 1.38 µM).

Turning to `CC[C@H]1C[C@@]23OC(=O)C(=C2O)C(=O)[C@]2(CC)[C@@H](C=C[C@@H]4[C@@H](O[C@H]5C[C@@H](O)[C@H](NC(=O)c6[nH]ccc6Br)[C@@H](C)O5)[C@@H](C)CC[C@@H]42)CCCC/C=C/[C@@]3(C)C=C1C(=O)O`, the figures for the half-inhibitory concentration (IC50) (in assay [1]; in “cells”) were 143 µM and 43 µM, respectively. In addition, the MIC in the assay with Streptococcus pneumoniae [2] is 8 µg/mL (≈ 9.37 µM); against Enterococcus faecalis [3], 16 µg/mL (≈ 18.7 µM); with Staphylococcus aureus [7], 4 µg/mL (≈ 4.68 µM); against Streptococcus pyogenes, 4 µg/mL (≈ 4.68 µM); with Staphylococcus aureus [9], 2 µg/mL (≈ 2.34 µM); against Enterococcus faecium [10] it was 64 µg/mL (≈ 75 µM). Further, the MIC against Enterococcus faecium [13] turned out to be 64 µg/mL (≈ 75 µM); in the assay with Enterococcus faecalis [14] it was 16 µg/mL (≈ 18.7 µM).

As for `CC[C@H]1C[C@@]23OC(=O)C(=C2O)C(=O)[C@]2(CC)[C@@H](C=C[C@@H]4[C@@H](O[C@H]5C[C@@H](O)[C@H](NC(=O)c6[nH]c(Cl)cc6Cl)[C@@H](C)O5)[C@@H](C)CC[C@@H]42)CCCC/C=C/[C@@]3(C)C=C1C(=O)O`, the IC50 was 50 µM in assay [1] and 9 µM in the assay “cells”. The MIC worked out at 4 µg/mL (≈ 4.74 µM) against Streptococcus pneumoniae [2]; 0.5 µg/mL (≈ 0.593 µM) in the assay with Enterococcus faecalis [3]; 1 µg/mL (≈ 1.19 µM) in the assay on Staphylococcus aureus [4]; 0.5 µg/mL (≈ 0.593 µM) against Staphylococcus aureus [5]; 1 µg/mL (≈ 1.19 µM) in [6]; 1 µg/mL (≈ 1.19 µM) against Staphylococcus aureus [7]. Besides, the minimal inhibitory concentration (MIC) in the assay on Staphylococcus aureus [8] came to 0.5 µg/mL (≈ 0.593 µM); against Streptococcus pyogenes, 2 µg/mL (≈ 2.37 µM); in the assay on Staphylococcus aureus [9] it was 0.25 µg/mL (≈ 0.296 µM); against Enterococcus faecium [10], 8 µg/mL (≈ 9.48 µM); against Staphylococcus aureus [11], 0.5 µg/mL (≈ 0.593 µM); with Streptococcus pneumoniae [12], 64 µg/mL (≈ 75.8 µM). Besides, the figures for the MIC (in the assay on Enterococcus faecium [13]; against Enterococcus faecalis [14]; in [15]) were 4 µg/mL (≈ 4.74 µM), 0.5 µg/mL (≈ 0.593 µM) and 1 µg/mL (≈ 1.19 µM), respectively. Further, the outcome with Candida albicans was inactive.

What is called IC50 is the concentration at which inhibition is half-maximal. Read a low IC50 as inhibition by little substance. What is called MIC is the lowest concentration that inhibits growth of the organism. Read a low MIC as greater potency.
